Laboratory results published in patent US9944602B2, “Piperidinone herbicides” (E. I. DU PONT DE NEMOURS AND COMPANY, priority 2014, dated 2018).

How the values were obtained:
Assay type in all cases: in vivo
[1] = system: pigweed (Amaranthus retroflexus); experiment: Test A postemergence pigweed; conditions: 0 to 100 scale, 0 is no effect, 100 is complete control
How it was run: (§1)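 Visual injury rating, 0–100 scale (0 = no effect, 100 = complete control), versus untreated controls ~10 d after treatment in greenhouse. Pre: directed soil spray onto seeded loam/sand. Post: foliar spray at 2–10 cm, 1–2 leaf stage. Solvent-surfactant formulation.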

[2] = system: barnyardgrass (Echinochloa crus-galli); experiment: Test A postemergence barnyardgrass; conditions: 0 to 100 scale, 0 is no effect, 100 is complete control
How it was run: as §1

[3] = system: barnyardgrass (Echinochloa crus-galli); experiment: Test B flooded paddy test barnyardgrass; conditions: Table B, Flood, scale 0 to 100
How it was run: (§2)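 Plants grown to the 2-leaf stage; pots flooded to 3 cm above soil at treatment, compound applied directly into paddy water, depth held throughout. Greenhouse 13 to 15 d, then visual evaluation against untreated controls.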

[4] = system: ducksalad (Heteranthera limosa); experiment: Test B flooded paddy test ducksalad; conditions: Table B, Flood, scale 0 to 100
How it was run: as §2

rice (Oryza sativa) = experiment: Test B flooded paddy test rice; conditions: Table B, Flood, scale 0 to 100
How it was run: as §2

[5] = system: foxtail, giant (giant foxtail, Setaria faberii); experiment: Test A postemergence foxtail, giant; conditions: 0 to 100 scale, 0 is no effect, 100 is complete control
How it was run: as §1

kochia (Kochia scoparia) [6] = experiment: Test A preemergence kochia; conditions: 0 to 100 scale, 0 no effect, 100 complete control
How it was run: as §1

[7] = system: ryegrass, Italian (Italian ryegrass, Lolium multiflorum); experiment: Test A preemergence ryegrass, Italian; conditions: 0 to 100 scale, 0 no effect, 100 complete control
How it was run: as §1

corn (Zea mays) = experiment: Test A postemergence corn; conditions: 0 to 100 scale, 0 is no effect, 100 is complete control
How it was run: as §1

[8] = system: wheat (Triticum aestivum); experiment: Test A postemergence wheat; conditions: 0 to 100 scale, 0 is no effect, 100 is complete control
How it was run: as §1

[9] = system: ragweed (common ragweed, Ambrosia elatior); experiment: Test A preemergence ragweed; conditions: 0 to 100 scale, 0 no effect, 100 complete control
How it was run: as §1

[10] = system: barnyardgrass (Echinochloa crus-galli); experiment: Test A preemergence barnyardgrass; conditions: 0 to 100 scale, 0 no effect, 100 complete control
How it was run: as §1

[11] = system: ragweed (common ragweed, Ambrosia elatior); experiment: Test A postemergence ragweed; conditions: 0 to 100 scale, 0 is no effect, 100 is complete control
How it was run: as §1

[12] = system: galium (catchweed bedstraw, Galium aparine); experiment: Test A postemergence galium; conditions: 0 to 100 scale, 0 is no effect, 100 is complete control
How it was run: as §1

[13] = system: sedge, umbrella (small-flower umbrella sedge, Cyperus difformis); experiment: Test B flooded paddy test sedge, umbrella; conditions: Table B, Flood, scale 0 to 100
How it was run: as §2

[14] = system: pigweed (Amaranthus retroflexus); experiment: Test A preemergence pigweed; conditions: 0 to 100 scale, 0 no effect, 100 complete control
How it was run: as §1

[15] = system: blackgrass (Alopecurus myosuroides); experiment: Test A postemergence blackgrass; conditions: 0 to 100 scale, 0 is no effect, 100 is complete control
How it was run: as §1

[16] = system: ryegrass, Italian (Italian ryegrass, Lolium multiflorum); experiment: Test A postemergence ryegrass, Italian; conditions: 0 to 100 scale, 0 is no effect, 100 is complete control
How it was run: as §1

kochia (Kochia scoparia) [17] = experiment: Test A postemergence kochia; conditions: 0 to 100 scale, 0 is no effect, 100 is complete control
How it was run: as §1

[18] = system: foxtail, giant (giant foxtail, Setaria faberii); experiment: Test A preemergence foxtail, giant; conditions: 0 to 100 scale, 0 no effect, 100 complete control
How it was run: as §1

SMILES | Plant response rating, Pigweed ([1]; 125 g ai/ha) | Plant response rating, Pigweed ([1]; 500 g ai/ha) | Plant response rating, Barnyardgrass ([2]; 125 g ai/ha) | Plant response rating, Barnyardgrass ([2]; 500 g ai/ha) | Plant response rating, Foxtail, Giant ([5]; 125 g ai/ha) | Plant response rating, Foxtail, Giant ([5]; 500 g ai/ha) | Kochia plant response rating (kochia (Kochia scoparia) [6]; 125 g ai/ha) | Kochia plant response rating (kochia (Kochia scoparia) [6]; 500 g ai/ha) | Ryegrass, Italian plant response rating ([7]; 125 g ai/ha) | Ryegrass, Italian plant response rating ([7]; 500 g ai/ha) | Plant response rating, Corn (corn (Zea mays); 125 g ai/ha) | Plant response rating, Corn (corn (Zea mays); 500 g ai/ha) | Plant response rating, Wheat ([8]; 125 g ai/ha) | Plant response rating, Wheat ([8]; 500 g ai/ha) | Ragweed plant response rating ([9]; 125 g ai/ha) | Ragweed plant response rating ([9]; 500 g ai/ha) | Barnyardgrass plant response rating ([10]; 125 g ai/ha) | Barnyardgrass plant response rating ([10]; 500 g ai/ha) | Plant response rating, Ragweed ([11]; 125 g ai/ha) | Plant response rating, Ragweed ([11]; 500 g ai/ha) | further results
O=C1NCCC(c2cccc(C(F)(F)F)c2)C1C(=O)Nc1ccc(F)cc1F (racemic) [Compound 27] | 0 | 0 | 50 | 60 | 40 | 70 | 0 | 0 | 0 | 0 | 0 | 0 | 0 | 0 | 0 | 0 | 60 | 90 | 0 | 0 | Plant response rating ([3]; 500 g ai/ha): 0; Plant response rating ([4]; 500 g ai/ha): 0; Plant response rating (rice (Oryza sativa); 500 g ai/ha): 0; Plant response rating, Galium ([12]; 125 g ai/ha): 0; Plant response rating, Galium ([12]; 500 g ai/ha): 0; Plant response rating ([13]; 500 g ai/ha): 0; Pigweed plant response rating ([14]; 125 g ai/ha): 0; Pigweed plant response rating ([14]; 500 g ai/ha): 0; Plant response rating, Blackgrass ([15]; 125 g ai/ha): 0; Plant response rating, Blackgrass ([15]; 500 g ai/ha): 0; Plant response rating, Ryegrass, Italian ([16]; 125 g ai/ha): 0; Plant response rating, Ryegrass, Italian ([16]; 500 g ai/ha): 0; Plant response rating, Kochia (kochia (Kochia scoparia) [17]; 125 g ai/ha): 0; Plant response rating, Kochia (kochia (Kochia scoparia) [17]; 500 g ai/ha): 0; Foxtail, Giant plant response rating ([18]; 125 g ai/ha): 80; Foxtail, Giant plant response rating ([18]; 500 g ai/ha): 90
O=C1NCC[C@@H](c2cccc(C(F)(F)F)c2)[C@@H]1C(=O)Nc1cccc(Cl)c1F [Compound 24] | 0 | 0 | 50 | 80 | 50 | 80 | 0 | 0 | 0 | 0 | 20 | 30 | 20 | 30 | 0 | 0 | 50 | 80 | 0 | 0 | Plant response rating ([3]; 250 g ai/ha): 0; Plant response rating ([4]; 250 g ai/ha): 0; Plant response rating (rice (Oryza sativa); 250 g ai/ha): 0; Plant response rating, Galium ([12]; 125 g ai/ha): 0; Plant response rating, Galium ([12]; 500 g ai/ha): 0; Plant response rating ([13]; 250 g ai/ha): 0; Pigweed plant response rating ([14]; 125 g ai/ha): 0; Pigweed plant response rating ([14]; 500 g ai/ha): 0; Plant response rating, Blackgrass ([15]; 125 g ai/ha): 0; Plant response rating, Blackgrass ([15]; 500 g ai/ha): 30; Plant response rating, Ryegrass, Italian ([16]; 125 g ai/ha): 0; Plant response rating, Ryegrass, Italian ([16]; 500 g ai/ha): 20; Plant response rating, Kochia (kochia (Kochia scoparia) [17]; 125 g ai/ha): 0; Plant response rating, Kochia (kochia (Kochia scoparia) [17]; 500 g ai/ha): 0; Foxtail, Giant plant response rating ([18]; 125 g ai/ha): 70; Foxtail, Giant plant response rating ([18]; 500 g ai/ha): 80
O=C1NCC[C@@H](c2ccc(C(F)(F)F)cc2)[C@@H]1C(=O)Nc1ccc(F)c(F)c1F [Compound 55] | 0 | 0 | 0 | 0 | 0 | 0 | 0 | 0 | 0 | 0 | 0 | 0 | 0 | 0 | 0 | 0 | 0 | 0 | 0 | 0 | Plant response rating ([3]; 250 g ai/ha): 0; Plant response rating ([4]; 250 g ai/ha): 0; Plant response rating (rice (Oryza sativa); 250 g ai/ha): 0; Plant response rating, Galium ([12]; 125 g ai/ha): 0; Plant response rating, Galium ([12]; 500 g ai/ha): 0; Plant response rating ([13]; 250 g ai/ha): 0; Pigweed plant response rating ([14]; 125 g ai/ha): 0; Pigweed plant response rating ([14]; 500 g ai/ha): 0; Plant response rating, Blackgrass ([15]; 125 g ai/ha): 0; Plant response rating, Blackgrass ([15]; 500 g ai/ha): 0; Plant response rating, Ryegrass, Italian ([16]; 125 g ai/ha): 0; Plant response rating, Ryegrass, Italian ([16]; 500 g ai/ha): 0; Plant response rating, Kochia (kochia (Kochia scoparia) [17]; 125 g ai/ha): 0; Plant response rating, Kochia (kochia (Kochia scoparia) [17]; 500 g ai/ha): 0; Foxtail, Giant plant response rating ([18]; 125 g ai/ha): 0; Foxtail, Giant plant response rating ([18]; 500 g ai/ha): 0
